# Test results published in patent US9987333B2, “Method for suppressing malignant tumor metastasis” (Shionogi & Co., Ltd., priority 2012, dated 2018).
# Legend:
# [1] = system: Human lung arterial microvascular endothelial cells; experiment: Adhesion of A549-GFP human lung cancer cells to human lung arterial microvascular endothelial cells in co-culture (Example 3); assay type: cell-based; conditions: 3 h co-culture
# Description: Human lung arterial microvascular endothelial cells were cultured to confluence, losartan was added thereto (to a final concentration of 5×10^−6 M), and 2 hours later, phosphate buffered saline (PBS) or cisplatin (CDDP) was added (to a final concentration of 5 μM). An hour later, the culture medium was replaced with a fresh culture medium (Medium 199 containing 1% BSA). To this, a suspension of fluorescently-labeled A549 human lung cancer cells (1×10^5 cells) was added, and the cells were co-cultured for 3 hours. After the co-culture, non-adherent cancer cells were washed out with cold PBS, and then 15-minute fixation with 4% formalin was performed. […] In FIG. 9A, spots which appear gray (actually green) are fluorescently-labeled A549-GFP human lung cancer cells. In FIG. 9B, white bars are for the control (without losartan pretreatment), and black bars are for the cases with losartan pretreatment. The vertical axis indicates the number of cancer cells that adhered (*: P<0.05).
# Human lung arterial microvascular endothelial cells (manufactured by Lonza Japan) were cultured to confluence, losartan was added thereto (to a final concentration of 5×10^−6 M), and 2 hours later, phosphate buffered saline (PBS) or cisplatin (CDDP) was added (to a final concentration of 5 μM). […]
# Mouse melanoma B16-F10 [2] = experiment: Tail vein injection metastasis test, mouse melanoma B16-F10, CDDP pretreatment with angiotensin II receptor antagonists (Example 2); assay type: in vivo, mice; conditions: 14 days; for exacerbation of lung metastasis caused by CDDP: oral, with CDDP 5 mg/kg, valsartan 40, losartan 30, olmesartan medoxomil 5, azilsartan 10, candesartan cilexetil 8, irbesartan 100 mg/kg
# Description: Eight-week-old male C57BL6 mice (purchased from Japan SLC, Inc.) were used. Mouse melanoma B16-F10 was purchased from ATCC, and cultured in DMEM (Life Technologies Corp.) containing 10% FCS under 5% CO2 at 37° C. The cells in a subconfluent state were treated with EDTA-trypsin, centrifuged, and then suspended in serum free DMEM so as to be 5×10^6 cells/mL. The melanoma cell suspension (100 μL/mouse, […]) was injected to the tail vein of the mice. As pretreatment, 5 mg/kg of cisplatin (CDDP) was injected to the tail vein of the mice 2 days before the injection of the melanoma cells into the tail vein. As an angiotensin II receptor antagonist, used were valsartan (trade name: Diovan made by Novartis Pharma K.K.), losartan (trade name: Nu-Lotan made by MSD K.K.), olmesartan medoxomil (trade name: Olmetecmade by Daiichi Sankyo Co., Ltd.), azilsartan (trade name: Azilva made by Takeda Pharmaceutical Co., Ltd.), candesartan cilexetil (trade name: Blopress made by Takeda Pharmaceutical Co., Ltd.), and irbesartan (trade name: Avapro made by Sumitomo Dainippon Pharma Co., Ltd.). To the angiotensin II receptor antagonist group, a 0.5% methylcellulose aqueous solution prepared so as to contain valsartan (40 mg/kg), losartan (30 mg/kg), olmesartan medoxomil (5 mg/kg), azilsartan (10 mg/kg), candesartan cilexetil (8 mg/kg), or irbesartan (100 mg/kg) was orally given for 4 days before the start of the experiment (before the injection of tumor cells to mice). After the injection of tumor cells, the oral intake of methylcellulose aqueous solutions containing telmisartan or pitavastatin in the above doses in the angiotensin II receptor antagonist group and the pitavastatin group was continued until the end of the experiment. To the control group, a 0.5% methylcellulose aqueous solution not containing any of the agents was orally given before the start of the experiment. The sample size of each group was n=5. The condition of the lung metastasis of the tumor cells 2 weeks (14 days) after the tumor cell injection was observed.
# Mouse melanoma B16-F10 [3] = experiment: Tail vein injection metastasis test, mouse melanoma B16-F10 (Example 1); assay type: in vivo, mice
# Description: Six-week-old male C56BL/6N mice (purchased from Japan SLC, Inc.) were used. Mouse melanoma B16-F10 was purchased from ATCC, and cultured in DMEM (Life Technologies Corp.) containing 10% FCS under 5% CO2 at 37° C. The cells in a subconfluent state were treated with EDTA-trypsin, centrifuged, and then suspended in serum free DMEM so as to be 5×10^6 cells/mL. The melanoma cell suspension (100 μL/mouse, 5×10^5 cells) was injected to the tail vein of the mice.
# For the CDDP group, 5 mg/kg of CDDP was injected, as pretreatment, to the tail vein of the mice 2 days before the injection of the melanoma cells into the tail vein. For the control group, an osmotic pump containing 0.9% physiological saline was subcutaneously implanted in the back of each mouse on the day before the injection of the melanoma cells into the tail vein. Similarly, for the adrenomedullin group, an osmotic pump containing adrenomedullin prepared for administration at 0.05 μg/kg/min was subcutaneously implanted into each mouse, and for the ghrelin group, an osmotic pump containing ghrelin prepared for administration at 0.08 μg/kg/min was subcutaneously implanted into each mouse. The tail vein injection of the melanoma cells was performed as above and the drug administration was continued for 2 weeks. The condition of the lung metastasis of the tumor cells 2 weeks after the tumor cell injection was observed (FIG. 1).
# To the angiotensin II receptor antagonist group, a 0.5% methylcellulose aqueous solution prepared so as to contain 2 mg/kg or 8 mg/kg of telmisartan was orally given for 4 days before the start of the experiment (before the injection of tumor cells to mice), and to the pitavastatin group, a 0.5% methylcellulose aqueous solution prepared so as to contain 20 mg/kg of pitavastatin was orally given for the same period. After the injection of tumor cells, the oral intake of methylcellulose aqueous solutions containing telmisartan or pitavastatin in the above doses in the angiotensin II receptor antagonist group and the pitavastatin group was continued until the end of the experiment. To the control group, a 0.5% methylcellulose aqueous solution not containing any of the agents was orally given before the start of the experiment. Also, as reference example, angiotensin II was administered at 1 μg/kg/min, and then the experiment was conducted in the same way. The sample size of each group was n=5.
# In contrast, in both of the telmisartan 2 mg/kg group and the telmisartan 8 mg/kg group, the exacerbation by CDDP was suppressed. The telmisartan 2 mg/kg (CDDP group) and the telmisartan 8 mg/kg (CDDP group) shown in FIGS. 3 and 4 are groups to which 2 mg/kg or 8 mg/kg of telmisartan was given in the manner described above before CDDP was injected as pretreatment. The pitavastatin (CDDP group) is the group to which pitavastatin was given in the manner described above before CDDP was injected as pretreatment.
# tumor = conditions: Non Patent Literature 27; cited from earlier work
# colon cancer cells = conditions: Non Patent Literature 24; cited from earlier work
# renal cell carcinoma = conditions: Non Patent Literature 23; cited from earlier work
# [4] = system: human umbilical vein endothelial cells (HUVECs); conditions: Non Patent Literature 29; cited from earlier work
# E select in = conditions: Non Patent Literature 29; cited from earlier work
smiles,measurement,setting,value
"[NH2][Pt]([NH2])([Cl])[Cl] [CDDP, cisplatin]",number of cancer cells adhered to the vascular endothelial cells,[1]; 1-hour pretreatment with 5 μM CDDP,increased
same,tumor metastasis (number of lung nodules),"Mouse melanoma B16-F10 [2]; CDDP 5 mg/kg tail vein 2 days before melanoma injection, vs control",augmented
same,lung metastasis of melanoma (number of nodules formed in the lungs),"Mouse melanoma B16-F10 [3]; CDDP 5 mg/kg tail vein 2 days before melanoma injection, compared to the control group",significantly increased
CCOc1nc2cccc(C(=O)O)c2n1Cc1ccc(-c2ccccc2-c2nc(=O)o[nH]2)cc1 [azilsartan],exacerbation of lung metastasis caused by CDDP,Mouse melanoma B16-F10 [2],significantly suppressed
CCOc1nc2cccc(C(=O)OC(C)OC(=O)OC3CCCCC3)c2n1Cc1ccc(-c2ccccc2-c2nn[nH]n2)cc1 (stereo not shown) [candesartan cilexetil],angiogenesis and metastasis of a tumor,tumor,suppressed
same,exacerbation of lung metastasis caused by CDDP,Mouse melanoma B16-F10 [2],significantly suppressed
CCCCC1=NC2(CCCC2)C(=O)N1Cc1ccc(-c2ccccc2-c2nnn[nH]2)cc1 [irbesartan],exacerbation of lung metastasis caused by CDDP,Mouse melanoma B16-F10 [2],significantly suppressed
CCCCc1nc(Cl)c(CO)n1Cc1ccc(-c2ccccc2-c2nn[nH]n2)cc1 [losartan],liver metastasis of colon cancer cells,colon cancer cells,suppressed
same,lung metastasis of renal cell carcinoma increased by cyclosporin (Cs),renal cell carcinoma,suppressed
same,adhesion of cancer cells to the vascular endothelial cells,[1]; losartan 5×10^−6 M 2 hours before 5 μM CDDP pretreatment,significantly suppressed
same,exacerbation of lung metastasis caused by CDDP,Mouse melanoma B16-F10 [2],significantly suppressed
CC[C@H](C)C(=O)O[C@H]1C[C@@H](C)C=C2C=C[C@H](C)[C@H](CC[C@@H]3C[C@@H](O)CC(=O)O3)[C@H]21 [lovastatin],adhesion of colon cancer cells to human umbilical vein endothelial cells (HUVECs),[4],inhibits
same,E select in expression,E select in,inhibits
CCCc1nc(C(C)(C)O)c(C(=O)OCc2oc(=O)oc2C)n1Cc1ccc(-c2ccccc2-c2nnn[nH]2)cc1 [olmesartan medoxomil],exacerbation of lung metastasis caused by CDDP,Mouse melanoma B16-F10 [2],significantly suppressed
O=C(O)C[C@H](O)C[C@H](O)/C=C/c1c(C2CC2)nc2ccccc2c1-c1ccc(F)cc1 [pitavastatin],exacerbation of the lung metastasis by CDDP,"Mouse melanoma B16-F10 [3]; pitavastatin 20 mg/kg orally before CDDP (5 mg/kg) pretreatment, 14 days",significantly suppressed
CCCc1nc2c(C)cc(-c3nc4ccccc4n3C)cc2n1Cc1ccc(-c2ccccc2C(=O)O)cc1 [telmisartan],exacerbation of lung metastasis by CDDP,"Mouse melanoma B16-F10 [3]; telmisartan 2 mg/kg orally before CDDP (5 mg/kg) pretreatment, 14 days",suppressed
same,exacerbation of lung metastasis by CDDP,"Mouse melanoma B16-F10 [3]; telmisartan 8 mg/kg orally before CDDP (5 mg/kg) pretreatment, 14 days",suppressed
same,lung metastasis of melanoma (number of nodules formed in the lungs),"Mouse melanoma B16-F10 [3]; telmisartan 8 mg/kg orally, alone, 14 days after tumor cell injection, vs control",significantly suppressed
CCCCC(=O)N(Cc1ccc(-c2ccccc2-c2nnn[nH]2)cc1)[C@H](C(=O)O)C(C)C [valsartan],exacerbation of lung metastasis caused by CDDP,Mouse melanoma B16-F10 [2],significantly suppressed
